Measured values reported in patent publication US7223836B2, “Peptides for chlamydophila pneumoniae vaccine and diagnosis” (The United States of America as represented by the …, priority 2001, dated 2007).
No end group written: not given here.

Key:
8A6 mAb = assay: competitive inhibition ELISA: peptide blocks 8A6 mAb binding to sonicated C. pneumoniae; parameters: species or system murine
Procedure: To perform these experiments, an ELISA was utilized in which mAb and inhibitor (phage) were premixed, incubated for 2 hours, and then plated onto the microtiter plates with renographin purified, sonicated whole-cell C. pneumoniae.
Several methods were used to determine binding specificity. […] The best synthetic peptides were selected by competing the peptide against the respective native C. pneumoniae lysate for binding to the target mAb.

[1] = tested on: 8A6 mAb binding to fixed, cultured C. pneumoniae cells (RBs and EBs); assay: competitive inhibition indirect IFA; parameters: species or system murine; conditions: serially diluted peptide
Procedure: The indirect immunofluorescence assay (IFA) was performed as described previously (Storey et al., 1993 and Wong Skelton Chan, 1992) with modifications. Antibiotic-free Buffalo African Green monkey cells were seeded into 1 dram shell vials or 24-well tissue culture trays containing 12 mm cover slips at a density of 3.0×10^5 cells/mL. Cells were incubated for 24 hours at 37° C. and checked for confluency. Cell cultures were infected by the addition of C. pneumoniae followed by centrifugation at 3000× g. Inclusions were counted using the Pathfinder® Chlamydia Culture Confirmation System staining kit (Sanofi Diagnostics Pasteur, Redmond, Wash.) as per manufacturer specifications. The 8A6 mAb was used as previously described (Wong et al. 1992) for detection of C. pneumoniae inclusions and to determine species specificity.
A competitive inhibition IFA assay was performed using the previously described IFA assay with modification. […]
Due to the subjective nature of IFA tests, it is difficult to standardize a competitive inhibition to obtain fluorescence measures. Instead, slides were scored from 1 to 4 such that a value of 3+ equals the endpoint titer and changes due to inhibition were scored empirically from comparison with control slides. […]

[2] = immunization of naive rabbits, antiserum ELISA; assay type: in vivo; conditions: subcutaneous, 50–200 μg with aluminum hydroxide, boosters
Procedure: (§1) In order to identify immunologically reactive C. pneumoniae peptides that can be used in the development of a C. pneumoniae vaccine, naive mice and rabbits were immunized with various C. pneumoniae polypeptides. An exemplary protocol is as follows: 50–200 μg of CP-8A6-B1 (SEQ ID NO:4) was mixed with 1 mg of aluminum hydroxide, a less inflammatory alternative to Freund's adjuvant. Rabbits were injected subcutaneously at multiple sites with 0.05 ml of inoculum, whereas mice were immunized intraperitoneally with no more than 0.2 ml of inoculum. At least 2–3 weeks following the initial immunization, the mice and rabbits were given their first booster immunizations. Mice were given subsequent boosters at two week intervals for up to 6 total injections, whereas rabbits were typically injected every 4–6 weeks. […] Briefly, after the antigen was immobilized, the bound peptide was tested with serial dilutions of the mouse and rabbit antisera and was detected with a goat anti-mouse IgG or a goat anti-rabbit IgG heavy plus light chain antibody horseradish peroxidase conjugate (Pierce Scientific). […] Absorbance at 490 nm was recorded with an enzyme immunoassay reader (Bio-Tek Instruments, Burlington, Vt.). […] Wells with optical density readings greater than 0.2 units at 490 nm were indicative of an immunologically reactive antiserum.

[3] = immunization of naive mice, antiserum ELISA; assay type: in vivo; conditions: intraperitoneal, 50–200 μg with aluminum hydroxide, boosters
Procedure: as §1

[4] = competitive inhibition ELISA, binding of 8A6 mAb to sonicated C. pneumoniae fixed to solid phase

| Sequence | IC50 (50% Inhibiting Concentration) (8A6 mAb; [4]) [µg/mL] | percent inhibition (8A6 mAb; [4]) [%] | peptide concentration down to which any observable binding of 8A6 mAb was completely blocked [1] [ng/mL] | percent inhibition (8A6 mAb; at 50 μg/mL of peptide) [%] | immune response (antiserum reactivity by ELISA) [2] | immune response (antiserum reactivity by ELISA) [3] |
| --- | --- | --- | --- | --- | --- | --- |
| HDEGRQIIQFEE [CP-8A6-A2, HDEGRQIIQFEE] | 18.29 | 83.5 | – | – | – | – |
| ESNPVDGAHLSL [CP-8A6-B10A, ESNPVDGAHLSL] | 18.90 | 57.4 | – | – | – | – |
| PNEPDDLALMRIIRI [CP-8A6-B1, PNEPDDLALMRIIRI] | 2.93 | 95.44 | 100 | 95.44 | produced an immune response | produced an immune response |
| RRLGRQTYDNES [CP-8A6-A1, RRLGRQTYDNES] | 4.82 | 84.5 | – | – | – | – |
| LRNCEQDFFTLN [CP-8A6-A3, LRNCEQDFFTLN] | 18.54 | 95.1 | – | – | – | – |
| AFAQAPTHQLSL [CP-8A6-B3, AFAQAPTHQLSL] | 6.46 | 67.8 | – | – | – | – |
